Earlier results on 3 molecules are cited in patent publication US20040024042A1, “COX2 inhibition in the prevention and treatment of autosomal dominant polycystic kidney disease” (Vanderbilt University, priority 2002, published 2004).

Series [1] concerns albumin and alpha1-acid glycoprotein. The conditions noted are these: within the clinical dose range.
A further series has as its target Cytochrome P450 2C9 (Homo sapiens, UniProt P11712).
Assay in series [2]: not given
This is another data set of the same source.

Assay in series [3]: not given
This is another data set of the same source.

A further series has as its system warfarin metabolism. The conditions noted are these: in vivo.
For another series, the system named is mouse models of FAP. The conditions noted are these: mice treated with COX2 inhibitor.

Chain of Cytochrome P450 2C9 (P11712 whole entry): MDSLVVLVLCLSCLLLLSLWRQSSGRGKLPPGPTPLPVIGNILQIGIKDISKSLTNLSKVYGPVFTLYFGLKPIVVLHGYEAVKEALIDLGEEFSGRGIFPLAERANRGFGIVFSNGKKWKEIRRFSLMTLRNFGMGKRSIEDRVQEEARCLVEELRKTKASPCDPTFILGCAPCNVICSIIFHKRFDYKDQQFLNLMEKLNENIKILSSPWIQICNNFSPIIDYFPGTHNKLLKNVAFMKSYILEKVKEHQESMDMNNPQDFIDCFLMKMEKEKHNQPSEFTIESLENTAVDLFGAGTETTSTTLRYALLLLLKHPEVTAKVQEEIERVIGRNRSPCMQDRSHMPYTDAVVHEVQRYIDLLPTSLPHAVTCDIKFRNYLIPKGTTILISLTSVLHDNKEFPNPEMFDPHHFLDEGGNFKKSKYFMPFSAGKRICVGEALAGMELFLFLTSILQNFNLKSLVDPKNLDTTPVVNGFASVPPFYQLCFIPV

As to `Cc1ccc(-c2cc(C(F)(F)F)nn2-c2ccc(S(N)(=O)=O)cc2)cc1` [celecoxib, 4-[5-(4-methyphenyl)-3-(trifluoromethyl)-1H-pyrazol-1-yl] benzenesulfonamide], under “after an oral dose”, the “Time of peak plasma levels” value is “roughly 3 hours”. Also, the “Effect of antacids on plasma concentrations” value (aluminum or magnesium containing antacids) is recorded as “decrease in plasma concentrations”. The Effective half-life result (fasted conditions) is “roughly 11 hours”. For the same molecule, for the setting “following a single dose”, the “Dose excreted in feces” value is 57% and the “Dose excreted in the urine” value is on record as 27%. Further, under “taken with a high fat meal”, the “Delay of plasma levels with food” value is 1 to 2 h and the “Increase in total absorption with food” value is on record as 10-20%. Also, the Protein binding result in series [1] was “highly protein bound”. At Cytochrome P450 2C9, the Major metabolizing enzyme result was “Cytochrome P450 2C9”.
As to `CS(=O)(=O)c1ccc(C2=C(c3ccccc3)C(=O)OC2)cc1` [rofecoxib], the “Time to steady state level” value in series [2] (25 mg qday) is reported as 4 days. Moreover, in series [2] (Child-Pugh score 7-9), the “Increase of AUC in moderate hepatic insufficiency” value was 69%. Moreover, the “Peak plasma concentration (Cmax)” value in series [2] (after a 25-mg dose) was 200 ng/mL. Besides, in series [2] (antacids), the “Reduction of Cmax by antacids” value is listed as 20% and the “Reduction of extent of absorption by antacids” value is given as 10-15%. Besides, the “Increase in bioavailability in elderly patients” value in series [2] (elderly patients (>65 yrs) compared to young subjects) is recorded as 34%. In [2] (in vivo), the Cd is reported as 90 L and the “Dose excreted unchanged in the urine” value is listed as under 1%. For the same molecule, the Oral bioavailability in [2] (in vivo, po) is recorded as over 90%. Moreover, in series [2] (repeated administration), the Accumulation factor is listed as 1.67. For the same molecule, in series [2] (steady state, 25 mg qday), the Cssmax is 320 ng/mL. Besides, in [3] (animal studies), the “Crossing of the placenta and the blood-brain barrier” value was “able to cross the placenta and the blood-brain barrier”. Further, the Excretion in milk result in series [3] (lactating animals) is “excreted in the milk of lactating animals”. Besides, in the series on Cytochrome P450 3A4 (in vivo), the “Induction of the 3A4 isoform” value was “mild inducer” and the “Substrate of the P450 system” value is “not a substrate for the P450 system”. The “Reduction of the AUC of midazolam” value in the series with Cytochrome P450 3A4 (rofecoxib 25 mg daily) was 30%. In the series with warfarin metabolism, the “Increase of INR with warfarin” value is listed as “about 10%”. Further, the Polyp formation entry with mouse models of FAP is recorded as “marked reduction in polyp formation”.
Turning to `CC(=O)O[C@H]1C(=O)[C@@]2(C)[C@H]([C@H](OC(=O)c3ccccc3)[C@]3(O)C[C@H](OC(=O)[C@H](O)[C@@H](NC(=O)c4ccccc4)c4ccccc4)C(C)=C1C3(C)C)[C@]1(OC(C)=O)CO[C@@H]1C[C@@H]2O` [Taxol], the “Progression of PKD” value in the series on PKD in animal models is listed as “slow progression of PKD”.
